# Data: patent US9469650B2, “Melampomagnolide B derivatives” (BOARD OF TRUSTEES OF THE UNIVERSITY OF ARKANSAS, priority 2013, dated 2016)
# Assays:
# K-562 = test: panel of 60 human tumor cell lines, growth inhibition (Leukemia)
# MOLT-4 = test: as above; details: Homo sapiens
# SR = test: as above; details: Homo sapiens
# LOX IMVI = test: panel of 60 human tumor cell lines, growth inhibition (Melanoma); details: Homo sapiens
# UACC-257 = test: as above
# SF-295 = test: panel of 60 human tumor cell lines, growth inhibition (CNS Cancer); details: Homo sapiens
# SF-539 = test: as above; details: Homo sapiens
# U251 = test: as above; details: Homo sapiens
# COLO 205 = test: panel of 60 human tumor cell lines, growth inhibition (Colon Cancer); details: Homo sapiens
# HT29 = test: as above; details: for Percent Growth: HT29
# SW-620 = test: as above; details: Homo sapiens
# CAKI-1 = test: panel of 60 human tumor cell lines, growth inhibition (Renal Cancer); details: Homo sapiens
# MDA-MB-468 = test: panel of 60 human tumor cell lines, growth inhibition (Breast Cancer); details: Homo sapiens
# OVCAR-3 = test: panel of 60 human tumor cell lines, growth inhibition (Ovarian Cancer)
# PC-3 = test: panel of 60 human tumor cell lines, growth inhibition (Prostate Cancer); details: Homo sapiens
# HOP-62 = test: panel of 60 human tumor cell lines, growth inhibition (Non-Small Cell Lung Cancer); details: Homo sapiens
# HOP-92 = test: as above; details: Homo sapiens
# NCI-H322M = test: as above; details: Homo sapiens
smiles,measurement,setting,value
C=C1C(=O)O[C@H]2[C@H]1CC/C(COC(=O)NCCCCCCO)=C\CC[C@@]1(C)O[C@@H]21 [JVM 2-31],GI50,"K-562; Homo sapiens, K562",4.96 µM
same,CC50,"K-562; Homo sapiens, K562, read-out: LC50",> 100 µM
same,Percent Growth,"K-562; K-562, Log10 Concentration −4.0",−33%
same,Percent Growth,"K-562; K-562, Log10 Concentration −5.0",28%
same,Percent Growth,"K-562; K-562, Log10 Concentration −6.0",101%
same,Percent Growth,"K-562; K-562, Log10 Concentration −7.0",113%
same,Percent Growth,"K-562; K-562, Log10 Concentration −8.0",102%
same,TGI,"K-562; K-562, NCI five dose",2.88E−5
same,GI50,MOLT-4; MOLT-4,5.33 µM
same,CC50,"MOLT-4; MOLT-4, read-out: LC50",> 100 µM
same,IC (TGI),"MOLT-4; MOLT-4, read-out: TGI",26.6 µM
same,GI50,SR,2.35 µM
same,CC50,SR; read-out: LC50,> 100 µM
same,IC (TGI),SR; read-out: TGI,13.3 µM
same,GI50,LOX IMVI; NCI five dose,3.45 µM
same,CC50,LOX IMVI; read-out: LC50,42.1 µM
same,IC (TGI),LOX IMVI; read-out: TGI,13.1 µM
same,GI50,"UACC-257; Homo sapiens, UACC-257",8.79 µM
same,CC50,"UACC-257; Homo sapiens, UACC-257, read-out: LC50",64.3 µM
same,Percent Growth,"UACC-257; UACC-257, Log10 Concentration −4.0",−73%
same,Percent Growth,"UACC-257; UACC-257, Log10 Concentration −5.0",47%
same,Percent Growth,"UACC-257; UACC-257, Log10 Concentration −6.0",95%
same,Percent Growth,"UACC-257; UACC-257, Log10 Concentration −7.0",104%
same,Percent Growth,"UACC-257; UACC-257, Log10 Concentration −8.0",102%
same,TGI,"UACC-257; UACC-257, NCI five dose",2.47E−5
same,GI50,SF-295; SF-295,14.8 µM
same,CC50,"SF-295; SF-295, read-out: LC50",85.8 µM
same,IC (TGI),"SF-295; SF-295, read-out: TGI",35.7 µM
same,GI50,SF-539; SF-539,2.42 µM
same,CC50,"SF-539; SF-539, read-out: LC50",34.8 µM
same,IC (TGI),"SF-539; SF-539, read-out: TGI",8.33 µM
same,GI50,U251; U-251,17.4 µM
same,CC50,"U251; U-251, read-out: LC50",63.7 µM
same,IC (TGI),"U251; U-251, read-out: TGI",33.3 µM
same,GI50,COLO 205; COLO 205,2.56 µM
same,CC50,"COLO 205; COLO 205, read-out: LC50",32 µM
same,IC (TGI),"COLO 205; COLO 205, read-out: TGI",6.39 µM
same,Percent Growth,HT29; Log10 Concentration −4.0,−61%
same,Percent Growth,HT29; Log10 Concentration −5.0,93%
same,Percent Growth,HT29; Log10 Concentration −6.0,102%
same,Percent Growth,HT29; Log10 Concentration −7.0,104%
same,Percent Growth,HT29; Log10 Concentration −8.0,101%
same,GI50,"HT29; Homo sapiens, HT-29",19 µM
same,CC50,"HT29; Homo sapiens, HT-29, read-out: LC50",84.8 µM
same,IC (TGI),"HT29; Homo sapiens, HT-29, read-out: TGI",40.1 µM
same,GI50,"SW-620; SW-620, SW-620, NCI five dose",2.93 µM
same,CC50,"SW-620; SW-620, read-out: LC50",74 µM
same,IC (TGI),"SW-620; SW-620, read-out: TGI",13.3 µM
same,GI50,CAKI-1; CAKI-1,3.44 µM
same,CC50,"CAKI-1; CAKI-1, read-out: LC50",40.2 µM
same,IC (TGI),"CAKI-1; CAKI-1, read-out: TGI",15.5 µM
same,GI50,MDA-MB-468; MDA-MB-468,1.01 µM
same,CC50,"MDA-MB-468; MDA-MB-468, read-out: LC50",35.7 µM
same,IC (TGI),"MDA-MB-468; MDA-MB-468, read-out: TGI",5.23 µM
same,GI50,"OVCAR-3; Homo sapiens, OVCAR-3",3.4 µM
same,CC50,"OVCAR-3; Homo sapiens, OVCAR-3, read-out: LC50",36 µM
same,IC (TGI),"OVCAR-3; Homo sapiens, OVCAR-3, read-out: TGI",12.1 µM
same,Percent Growth,"OVCAR-3; OVCAR-3, Log10 Concentration −4.0",−97%
same,Percent Growth,"OVCAR-3; OVCAR-3, Log10 Concentration −5.0",9%
same,Percent Growth,"OVCAR-3; OVCAR-3, Log10 Concentration −6.0",97%
same,Percent Growth,"OVCAR-3; OVCAR-3, Log10 Concentration −7.0",111%
same,Percent Growth,"OVCAR-3; OVCAR-3, Log10 Concentration −8.0",105%
same,GI50,PC-3; PC-3,13.3 µM
same,CC50,"PC-3; PC-3, read-out: LC50",64.1 µM
same,IC (TGI),"PC-3; PC-3, read-out: TGI",29.2 µM
same,GI50,HOP-62; HOP-62,19.6 µM
same,CC50,"HOP-62; HOP-62, read-out: LC50",86.7 µM
same,IC (TGI),"HOP-62; HOP-62, read-out: TGI",41.2 µM
same,GI50,"HOP-92; HOP-92, HOP-92, NCI five dose",2.77 µM
same,CC50,"HOP-92; HOP-92, read-out: LC50",38.5 µM
same,IC (TGI),"HOP-92; HOP-92, read-out: TGI",9.99 µM
same,GI50,NCI-H322M,32.2 µM
same,CC50,NCI-H322M; read-out: LC50,> 100 µM
same,IC (TGI),NCI-H322M; read-out: TGI,89 µM
